From PubChem BioAssay AID2060360 (Molecular Pharmacology Branch, DTP, NCI, 2025)

Test system: 282377-053-R-J1-PDC tumor spheroids, viability
Assay: Anticancer human tumor 282377-053-R-J1-PDC patient-derived colon adenocarcinoma cell line growth inhibition [TAK]
Details: spheroids with HUVEC and MSC; for IC50: curve of first compound; for viability, T/C: stronger effect = lower value
Outline: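 Tumor cells were grown as spheroids with HUVEC and hMSC (60:25:15) and treated with targeted agents combined with TAK-243 or ipatasertib. Drugs were tested in half-log steps down from near the clinical Cmax, or from 10 microM where Cmax was unknown.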
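Note: spheroids exposed to drugs for seven days before readout.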

CC(=O)Nc1cccc(-n2c(=O)n(C3CC3)c(=O)c3c(Nc4ccc(I)cc4F)n(C)c(=O)c(C)c32)c1 + CC(C)NCC(C(=O)N1CCN(c2ncnc3c2C(C)CC3O)CC1)c1ccc(Cl)cc1
IC50 (second compound 0.3 µM): 2.49 nM | IC50 (second compound 0.949 µM): 1.95 nM | IC50 (second compound 3 µM): 1.44 nM | IC50 (second compound 9.49 µM): 1.54 nM | IC50 (second compound 30 µM): 0.516 nM | viability, T/C (second compound 0.3 µM, first compound 94.9 pM): 96% | viability, T/C (second compound 0.3 µM, first compound 0.0003 µM): 79% | viability, T/C (second compound 0.3 µM, first compound 0.000949 µM): 67.5% | viability, T/C (second compound 0.3 µM, first compound 0.003 µM): 49.2% | viability, T/C (second compound 0.3 µM, first compound 0.00949 µM): 24.9% | viability, T/C (second compound 0.3 µM, first compound 0.03 µM): 12.4% | viability, T/C (second compound 0.949 µM, first compound 94.9 pM): 86.8% | viability, T/C (second compound 0.949 µM, first compound 0.0003 µM): 76.9% | viability, T/C (second compound 0.949 µM, first compound 0.000949 µM): 55.2% | viability, T/C (second compound 0.949 µM, first compound 0.003 µM): 49.3% | viability, T/C (second compound 0.949 µM, first compound 0.00949 µM): 24.8% | viability, T/C (second compound 0.949 µM, first compound 0.03 µM): 11.8% | viability, T/C (second compound 3 µM, first compound 94.9 pM): 78.2% | viability, T/C (second compound 3 µM, first compound 0.0003 µM): 70.6% | viability, T/C (second compound 3 µM, first compound 0.000949 µM): 53.6% | viability, T/C (second compound 3 µM, first compound 0.003 µM): 40.8% | viability, T/C (second compound 3 µM, first compound 0.00949 µM): 26.7% | viability, T/C (second compound 3 µM, first compound 0.03 µM): 13.7% | viability, T/C (second compound 9.49 µM, first compound 94.9 pM): 75.4% | viability, T/C (second compound 9.49 µM, first compound 0.0003 µM): 71.7% | viability, T/C (second compound 9.49 µM, first compound 0.000949 µM): 56.8% | viability, T/C (second compound 9.49 µM, first compound 0.003 µM): 38.4% | viability, T/C (second compound 9.49 µM, first compound 0.00949 µM): 25.9% | viability, T/C (second compound 9.49 µM, first compound 0.03 µM): 12.4% | viability, T/C (second compound 30 µM, first compound 94.9 pM): 64% | viability, T/C (second compound 30 µM, first compound 0.0003 µM): 58.6% | viability, T/C (second compound 30 µM, first compound 0.000949 µM): 41.6% | viability, T/C (second compound 30 µM, first compound 0.003 µM): 27% | viability, T/C (second compound 30 µM, first compound 0.00949 µM): 22.9% | viability, T/C (second compound 30 µM, first compound 0.03 µM): 12.3%

CC(C)CC(NC(=O)CNC(=O)c1cc(Cl)ccc1Cl)B1OC(=O)CC(CC(=O)O)(C(=O)O)O1 (stereo not given) + CC(C)NCC(C(=O)N1CCN(c2ncnc3c2C(C)CC3O)CC1)c1ccc(Cl)cc1
IC50 (second compound 0.3 µM): 53.8 nM | IC50 (second compound 0.949 µM): 47.9 nM | IC50 (second compound 3 µM): 43.8 nM | IC50 (second compound 9.49 µM): 39.3 nM | IC50 (second compound 30 µM): 36.3 nM | viability, T/C (second compound 0.3 µM, first compound 0.000316 µM): 99.5% | viability, T/C (second compound 0.3 µM, first compound 0.001 µM): 93.9% | viability, T/C (second compound 0.3 µM, first compound 0.00316 µM): 94.3% | viability, T/C (second compound 0.3 µM, first compound 0.01 µM): 92.7% | viability, T/C (second compound 0.3 µM, first compound 0.0316 µM): 89.7% | viability, T/C (second compound 0.3 µM, first compound 0.1 µM): 3.57% | viability, T/C (second compound 0.949 µM, first compound 0.000316 µM): 100% | viability, T/C (second compound 0.949 µM, first compound 0.001 µM): 88.3% | viability, T/C (second compound 0.949 µM, first compound 0.00316 µM): 87.1% | viability, T/C (second compound 0.949 µM, first compound 0.01 µM): 94.5% | viability, T/C (second compound 0.949 µM, first compound 0.0316 µM): 77.1% | viability, T/C (second compound 0.949 µM, first compound 0.1 µM): 1.73% | viability, T/C (second compound 3 µM, first compound 0.000316 µM): 82.4% | viability, T/C (second compound 3 µM, first compound 0.001 µM): 87.8% | viability, T/C (second compound 3 µM, first compound 0.00316 µM): 84.2% | viability, T/C (second compound 3 µM, first compound 0.01 µM): 84.5% | viability, T/C (second compound 3 µM, first compound 0.0316 µM): 69.2% | viability, T/C (second compound 3 µM, first compound 0.1 µM): 1.39% | viability, T/C (second compound 9.49 µM, first compound 0.000316 µM): 81.3% | viability, T/C (second compound 9.49 µM, first compound 0.001 µM): 79.3% | viability, T/C (second compound 9.49 µM, first compound 0.00316 µM): 81.7% | viability, T/C (second compound 9.49 µM, first compound 0.01 µM): 77.5% | viability, T/C (second compound 9.49 µM, first compound 0.0316 µM): 61.5% | viability, T/C (second compound 9.49 µM, first compound 0.1 µM): 1.53% | viability, T/C (second compound 30 µM, first compound 0.000316 µM): 70.2% | viability, T/C (second compound 30 µM, first compound 0.001 µM): 74.6% | viability, T/C (second compound 30 µM, first compound 0.00316 µM): 67.7% | viability, T/C (second compound 30 µM, first compound 0.01 µM): 66.8% | viability, T/C (second compound 30 µM, first compound 0.0316 µM): 57.3% | viability, T/C (second compound 30 µM, first compound 0.1 µM): 0.99%
